Data reported in publication PMC10838660, “Artificial intelligence-powered discovery of small molecules inhibiting CTLA-4 in cancer” (BJC reports, 2024).

Assays:
tumor development = test system: tumor development; design: method as in PMID 35254416; conditions: doses of 2 to 200 mg/kg; cited from earlier work
MC38 tumors [1] = assay: MC38 syngeneic tumors in C57BL/6 mice; type: in vivo
Protocol: C57BL/6 mice were purchased from the Charles River Laboratories. In hCTLA-4 mice, the exons encoding for the ECD and transmembrane domains of murine CTLA-4 were replaced with the human versions. All mice were maintained at the Research Animal Facility of Baylor College of Medicine, and all studies were conducted under an animal protocol approved by the Baylor College of Medicine Institutional Animal Care and Use Committee. Mice were challenged with 0.5 million MC38 colorectal cancer cells passaged the previous day at 75% confluence. For the prophylactic model, ipilimumab or small-molecule treatment began 1 day after tumor cell inoculation. For the therapeutic model, ipilimumab or small-molecule treatment was initiated 7 to 17 days after the injection of tumor cells, depending upon when the tumors reached an average size of approximately 100 mm^3. Tumor volumes were calculated with the formula volume = (width^2 × length)/2. Measurements were recorded every 2 to 3 days. For the histologic analyses, the internal organs, including the livers, kidneys, lungs, colons, and salivary glands, were fixed in 10% paraformal-dehyde for at least 24 h, cut from paraffin blocks in […] sections using a Microm HM 315 microtome, and mounted on SuperFrost Plus slides (Roth). Slides were stained with hematoxylin and eosin (Shandon Varistain [24–4] Automatic Stainer). For the histopathologic analysis of the internal organs harvested from mice that had been treated with therapeutic compounds or control antibodies, stained sections were prepared from the formalin-fixed tissue and were assessed in a blinded fashion.

[2] = test system: interaction of CTLA-4 with CD80 and CD86; assay: Luciferase reporter assay, CTLA-4 effector Jurkat T cells with Raji antigen-presenting cells; type: cell-based, human
Description: We first evaluated the inhibitory impacts of the compounds against the interaction between CTLA-4 and CD80 using an amplified luminescent proximity homogeneous (Alpha)LISA assay. In this assay, a biotinylated CD80 binds to streptavidin-coated alpha donor beads, while anti-His AlphaLISA acceptor beads capture His-tagged CTLA-4. Upon binding of CD80 to CTLA-4, the donor and acceptor beads draw near, thus excitation of the donor bead leads to the release of singlet oxygen molecules. Consequently, an energy transfer cascade occurs in the acceptor beads, culminating in an intense peak of light emission at 615 nm (Fig. 1a). […] The compounds’ inhibitory activity against CTLA-4 was confirmed through a luciferase reporter assay involving 2 genetically engineered cell lines. First, we developed a CTLA-4 effector cell line using Jurkat T cells expressing human CTLA-4 and a luciferase reporter driven by a native promoter responsive to T-cell receptor (TCR)/CD28 activation. We also managed to establish an adjacent antigen-presenting cell line utilizing Raji cells, which are capable of expressing constitutively active engineered proteins on their surfaces without requiring antigens for effectivity. The Raji cells will also be able to naturally produce endogenous levels of both CD80 as well as CD86 molecules within the target APCs themselves as they transclude from one host to another. […]

[3] = test system: mouse tumor-infiltrating lymphocytes (TILs); assay: IFN-γ production in mouse TILs cocultured with MC38 tumor cells; type: cell-based
Protocol: We examined the ability of these 5 anti-CTLA-4 compounds to stimulate interferon-γ (IFN-γ) production in mouse tumor-infiltrating lymphocytes (TILs). MC38 tumors grown in C57BL/6 mice were extracted to obtain CD45^+ TILs.
(§1) The ability of compounds to be immunostimulatory was measured by coculturing mouse-derived TILs with MC38 tumors grown in C57BL/6 mice. Tumors were digested using a Tumor Dissociation Kit (Miltenyi Biotec, 130-095-929). After cell isolation, TILs were extracted with a MagniSort Mouse CD45 isolation kit protocol (Invitrogen, 8802-6865-74). TILs were cocultured with MC38 cells for 48 h, and the expression levels of IFN-γ were detected with the AlphaLISA Mouse IFN-γ Detection Kit (PerkinElmer, AL501C). Human DCs and T cells from different patients were prepared and treated as described. For MC38 and human cancer cells treated with compounds, the CellTiter-Glo Luminescent Cell Viability Assay (Promega, G7570) was used to measure the viability.

MC38 tumors [4] = assay: MC38 tumors in humanized CTLA-4 (hCTLA-4) mice; type: in vivo; conditions: for development of MC38 tumors: therapeutic, A9 and D11 25 mg/kg
Description: (§2) In hCTLA-4 mice, the ECD of the mouse Ctla-4 gene has been replaced with the human counterpart, yet the resulting protein still interacts effectively with mouse CD80 and CD86 [42]. […] Next, we measured the mice’s levels of serum cardiac troponin I type 3 (TNNI3), a marker associated with ipilimumab-induced irAEs. We found elevated serum TNNI3 levels in mice treated with ipilimumab, anti-PD-1, or anti-PD-1 plus D11, but not in mice treated with D11 alone (Fig. 4e). It is unclear why D11 monotherapy appeared to have a protective effect in comparison with anti-PD-1 alone. We also treated 2 human cells lines, HCT116 and MDA-MB231, with D11 and 5-fluorouracil, an antimetabolite drug that is widely used for the treatment of colorectal cancer. […] Thus, it is likely that D11 is weakly toxic to tumor cells and that its antitumor effects are largely due to its regulation of the immune response.
Using another cohort of hCTLA-4 mice inoculated with MC38 cells, we treated animals (n = 5 per group) with ipilimumab, anti-PD-1, anti-PD-1 plus D11, D11 alone, or vehicle in the same dosages as used previously. Some animals’ tumors were collected approximately 10 days after the last treatment dose, whereas for the remaining animals, the tumors were allowed to grow (Supplementary Fig. S7). […] Single-cell suspensions from tumors were sorted to obtain CD45^+ immune cells, which were then subjected to single-cell RNA sequencing (scRNAseq) and TCR sequencing. Next, the immune cell populations were compared across the samples (Fig. 5b, c). […] Another interesting observation from the scRNAseq analysis was that the differential expression of membrane-type 1 matrix metalloproteinase, which is known for its role as a key regulator in cell migration in tissues, was associated with D11 treatment. This finding could lead to a possible new mechanism of action, besides macrophage recruitment, to drive the search for anticancer compounds.
(§3) We next investigated analogs of the 5 anti-CTLA-4 compounds for possible refinement.
C57BL/6 mice were purchased from the Charles River Laboratories. In hCTLA-4 mice, the exons encoding for the ECD and transmembrane domains of murine CTLA-4 were replaced with the human versions. […] Tumor volumes were calculated with the formula volume = (width^2 × length)/2. Measurements were recorded every 2 to 3 days. […] For the histopathologic analysis of the internal organs harvested from mice that had been treated with therapeutic compounds or control antibodies, stained sections were prepared from the formalin-fixed tissue and were assessed in a blinded fashion.

[5] = test system: human DCs with allogeneic peripheral blood mononuclear cells; assay: Human DCs cultured with allogeneic PBMCs, flow cytometry; type: cell-based
Protocol: CD80 and CD86 on dendritic cells (DCs) interact with CD28 or CTLA-4 on T cells to regulate T-cell activation.
as §1
Flow cytometry was used to measure subcellular populations in tumors. All flow cytometry analyses were performed using either an LSR II flow cytometer (BD Biosciences) or a Northern Lights-3000 flow cytometer (Cytek) and analyzed with FlowJo (Treestar, Inc.). All flow analyses were representative of at least 3 independent experiments using […] CD proteins 4, 8, and 25 (CD4, 116003; CD8, 100707; and CD25, 102011); Foxp3 (126409); and IFN-γ (506506) flow antibodies (Biolegend). Antimouse and antihuman CTLA-4 antibodies were purchased from BioLegend (106313) and Invitrogen (46-1529-42).

[6] = Body weight of treated hCTLA-4 mice; type: in vivo; conditions: MC38-inoculated hCTLA-4 mice, treated vs control
Description: as §2, §3

[7] = test system: CD45+ immune cells from MC38 tumors; assay: Single-cell RNA and TCR sequencing of CD45+ tumor immune cells; type: in vivo, hCTLA-4 mice; conditions: scRNAseq of CD45+ tumor cells
Description: Using another cohort of hCTLA-4 mice inoculated with MC38 cells, we treated animals (n = 5 per group) with ipilimumab, anti-PD-1, anti-PD-1 plus D11, D11 alone, or vehicle in the same dosages as used previously. Some animals’ tumors were collected approximately 10 days after the last treatment dose, whereas for the remaining animals, the tumors were allowed to grow (Supplementary Fig. S7). […] Single-cell suspensions from tumors were sorted to obtain CD45^+ immune cells, which were then subjected to single-cell RNA sequencing (scRNAseq) and TCR sequencing. Next, the immune cell populations were compared across the samples (Fig. 5b, c). […]
Tumors from CTLA-4-humanized MC38 syngeneic mice (n = 3–5 mice) were extracted for single-cell suspension using a gentleMACS Octo Dissociator (Miltenyi Biotec). […] The acquired scRNAseq reads from the 10X Genomics platform were aligned to a reference genome (mm10) using Cell Ranger (V.7.1, 10X Genomics) default parameters. The reads and cells were further filtered with Seurat (V.4.0.3) in R (V.4.1.0). […] The clonality of the TCR repertoire was calculated as a 1-Pielou index value using the formula 1+ ∑(i=1 to n) (pi*ln(pi))/ln(n), where pi is the frequency of clone i for a sample of n unique clones; this metric was normalized to the number of unique clones and ranges from 0 to 1. […]

[8] = test system: serum cardiac troponin I type 3 (TNNI3); assay: Serum TNNI3 in treated mice; type: in vivo; conditions: marker of ipilimumab-induced irAEs
Description: as §2

[9] = prophylactic setting, 25 mg/kg i.p.
[10] = start at approximately 100 mm^3

Molecule: Cc1c(Nc2nccc3cc(CN4CC[C@@H](O)C4)cnc23)cccc1-c1cccc(-c2nc3cc(CN4CC[C@@H](C(=O)O)C4)cc(C#N)c3o2)c1C [INCB086550]
- tumor development (tumor development): inhibited tumor development

Molecule: C/C(=N/OCc1ccccc1)c1nc(-c2ccccc2)[nH]c1C [A9]
- numbers of tumor-infiltrating Treg cells (MC38 tumors [1]; 25 mg/kg i.p.): reduced
- MC38 models (MC38 tumors [1]; Table 3 summary, Mouse or human CTLA-4/mouse CD80): Y
- tumor growth after rechallenge with 200,000 MC38 cells (MC38 tumors [1]; mice that completely rejected tumors, vs control group): slower
- animal survival (MC38 tumors [1]; [9]): prolonged animal survival
- complete tumor rejection / complete response (MC38 tumors [1]; [9]): Four of 10
- tumor growth (MC38 tumors [1]; prophylactic setting, 4 200-μg doses (25 mg/kg) i.p. every other day, start 1 day after inoculation): drastically inhibited tumor growth
- tumor growth (MC38 tumors [1]; therapeutic setting, start at tumor volume approximately 100 mm^3): significantly reduced tumor growth
- promoter-mediated luminescence (blockade of CTLA-4 with CD80 and CD86) [2]: resulted in promoter-mediated luminescence
- INF-γ stimulation ex vivo (MC38) ([3]; Table 3 summary, Mouse CTLA-4/CD80): Y
- tumor-inhibition activity in hCTLA-4 mice compared with non-humanized C57BL/6 mice (MC38 tumors [4]; mouse, in vivo): superior tumor-inhibition activity
- development of MC38 tumors (MC38 tumors [4]; [10]): substantially inhibited
- Tconv (%) ([5]; 10 μM, 6 days): 43.1%
- Treg (%) ([5]; 10 μM, 6 days): 12.4%
- Tconv (%) ([5]; 50 μM, 6 days): 49.6%
- Treg (%) ([5]; 50 μM, 6 days): 20.9%
- Tconv: Treg decrease (human cells) ([5]; Table 3 summary, Human CTLA-4/CD80): Y
- body weight [6]: no significant weight loss

Molecule: ipilimumab: an anti-CTLA-4 antibody, first immune checkpoint blockade therapy to receive FDA approval [reference compound]
- promoter-mediated luminescence (blockade of CTLA-4 with CD80 and CD86) [2]: resulted in promoter-mediated luminescence
- IFN-γ production ([3]; 3-μg/ml doses): substantially stimulated
- tumor inhibition / therapeutic efficacy (MC38 tumors [4]; second cohort (Fig. 5a), start at approximately 100 mm^3): inhibited tumors
- development of MC38 tumors (MC38 tumors [4]; [10]): inhibited tumors
- Tconv (%) ([5]; 5 μg/ml, 6 days): 42.7%
- Tconv/Treg ratio ([5]; 5 μg/ml, 6 days): 3.44
- Treg (%) ([5]; 5 μg/ml, 6 days): 12.4%
- tumor-infiltrating macrophages [7]: only moderately affected
- serum TNNI3 levels [8]: elevated
